Results: patent US20220274980A1, “PHARMACOLOGICAL INHIBITORS OF THE ENL YEATS DOMAIN” (priority 2019, published 2022)
Like-named read-outs stand apart in the source and are kept apart here.

What was measured:
[1] = target: T1, ENL YEATS domain (association with H3K27cr) (Homo sapiens, UniProt Q03111); experiment: biochemical; details: ENL (YEATS)-H3K27cr HTRF (IC50, μM)
T1 sequence (Q03111 1-148): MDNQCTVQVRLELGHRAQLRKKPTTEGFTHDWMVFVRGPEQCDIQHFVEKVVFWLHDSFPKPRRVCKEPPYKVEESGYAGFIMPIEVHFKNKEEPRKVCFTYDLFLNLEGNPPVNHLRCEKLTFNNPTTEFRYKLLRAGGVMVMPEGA
Experimental: (§1) Protein Production. Double stranded DNA fragments encoding the protein sequence of ENL YEATS(1-148) were synthesized (IDT DNA) for assembly-based cloning into a modified expression vector backbone derived from pET21a (Novagen). The protein was fused to a StrepII-SUMO and 6×His tag on the amino and carboxy terminus, respectively. Transformed BL21(DE3) cells (New England Biolabs) were grown at 37° C. in 2×YT growth medium to an OD600 of 0.6. Protein expression was induced at 25° C. with the addition of isopropyl-β-D-thiogalactopyranoside (IPTG) to a final concentration of 0.4 mM. The culture was harvested by centrifugation following a 20-hour incubation and subsequently purified by immobilized metal affinity chromatography. Cells were resuspended 50 mM Tris-HCl pH 8.0, 300 mM NaCl, 10% glycerol, 10 mM imidazole, 1 mM DTT containing Complete EDTA-free protease inhibitor (Roche) and lysed by two passes through a MicroFluidizer at 10,000 psi. The lysate was clarified by centrifugation at 16,000 rpm for 30 minutes at 4° C. The supernatant was passed over NiNTA agarose (QIAGEN) and the protein was eluted in 50 mM Tris-HCl pH 8.0, 300 mM NaCl, 10% glycerol, 250 mM imidazole, 1 mM DTT. Fractions containing the ENL YEATS(1-148) fusion protein were buffer exchanged into 100 mM Tris-HCl pH 8.0, 150 mM NaCl, 1 mM EDTA, 1 mM DTT using PD10 desalting columns (GE Life Sciences). Ulp1 protease was added to cleave the StrepII-SUMO fusion and the reaction mixture was incubated overnight at 4° C. The cleavage reaction mixture was loaded onto a StrepTrap column (GE Life Sciences) and ENL YEATS(1-148) was recovered in the flow through. BRD4 BD1 was purchased from Cayman (Cat. No. 11720).
(§2) Homogenous time-resolved FRET (HTRF) histone-binding assays. Both HTRF assays were performed by combining recombinant protein and synthetic histone peptide in assay buffer (25 mM HEPES pH 7, 20 mM NaCl, 0.2% Pluronic F-127, and 0.05% BSA) with 1 nM LanthaScreen Eu-anti-His Tag antibody (ThermoFisher, Cat. No, PV5597) and 8.9 nM SureLight allophycocyanin-streptavidin (Perkin Elmer, APC-SA, Cat. No. CR130-100). ENL YEATS was used at 5 nM and BRD4 BD1 was used at 10 nM. ENL assays were performed with H3(13-32)K27cr (13.3 and 100 nM, respectively), custom synthesized at ABclonal (N-terminal biotin, C-terminal amide); BRD4 BD1 assay was performed with 13.3 nM tetra-acetylated H4 (BioVision, Cat. No. 7144-01). Once all reagents were combined (with or without peptide), 10 μL was dispensed per well into black 384-well low-volume plates (Corning, Cat. No. 3821) and drug was added by pin tool transfer (Biomek FX). Assays were incubated for 2 or more hours before measurement of HTRF signal on a PHERAstar plate reader (BMG Labtech; simultaneous dual emission; excitation=337 nm, emission 1=665 nm, emission 2=620 nm). HTRF signal (ratio of emission 1 to emission 2) from vehicle-treated wells (maximum signal) and no-peptide-control wells (minimum signal) were used to calculate percent inhibition for drug-treated wells.

BRD4 bromodomain 1 (BD1) = target: T2, BRD4 bromodomain 1 (BD1) (Homo sapiens, UniProt O60885); experiment: BRD4 (BD1)-H4 tetra-acetylated HTRF histone-binding assay
T2 construct: Selectivity against BRD4 bromodomain 1 (BD1), measured by HTRF; His; purchased Cayman 11720
Experimental: as §1, §2

ENL(YEATS)-HiBiT [2] = target: T3, ENL(YEATS)-HiBiT (Homo sapiens, UniProt Q03111); experiment: cell-based
T3 sequence (Q03111 1-138 limits assumed): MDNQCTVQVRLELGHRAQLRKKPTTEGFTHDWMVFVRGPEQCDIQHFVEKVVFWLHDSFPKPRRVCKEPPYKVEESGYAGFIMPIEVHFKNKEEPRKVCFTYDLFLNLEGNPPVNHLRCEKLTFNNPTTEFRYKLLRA
Experimental: (§3) Cellular thermal shift assay (CETSA). […] Cells were transferred to 384-well (20,000 cells per well in 20 μL) or 1,536-well (3,000 cells per well in 4 μL) plates and drug was transferred using a 100 nL pin tool for 384-well plates or acoustic transfer (Labcyte, Echo Liquid Handler) for 1,536-well plates. Luminescent detection of HiBiT was performed by combining an equal volume of Nano-Glo HiBiT Lytic Reagent (Promega, HiBiT Lytic Detection System, Cat. No. N3040) in each well. […] Briefly, cells were treated with drug, washed with PBS, heated to various temperatures in a thermocycler, cooled to room temperature, lysed by three rounds of freeze-thaw, and then clarified lystaes were subjected to immunoblot analysis.

ENL(YEATS)-HiBiT [3] = target: T3, ENL(YEATS)-HiBiT; details: read-out: ENL YEATS CETSA (IC50); Table 2; OCI/AML-2 cells expressing ENL(YEATS)-HiBiT
Experimental: as §3

SMILES | IC50 ([1]; Table 1) | IC50 ([1]; Table 2) | IC50 (BRD4 bromodomain 1 (BD1); Table 1) | IC50 (BRD4 bromodomain 1 (BD1); Table 2) | IC50 (ENL(YEATS)-HiBiT [2]) | IC50 (ENL(YEATS)-HiBiT [3])
CC(C)NC(=O)c1ccc2nc(-c3ccccc3C(F)(F)F)cn2c1 [Compound 6] | > 50 µM | > 50 µM | > 50 µM | > 50 µM | > 100 µM | > 100 µM
CC(C)N(C)C(=O)c1ccc2nc(-c3ccccc3)cn2c1 [Compound 8] | > 50 µM | > 50 µM | > 50 µM | > 50 µM | > 100 µM | > 100 µM
CC(NC(=O)c1ccc2nc(-c3ccccc3)cn2c1)c1ccncc1 (stereo not shown) [Compound 24] | 12 µM | 12 µM | > 50 µM | > 50 µM | 80 µM | 
Cc1ccccc1-c1cn2cc(C(=O)NC(C)C)ccc2n1 [Compound 26] | 33 µM | 33 µM | > 50 µM | > 50 µM | 80 µM | 
N#CC1(NC(=O)c2ccc3nc(-c4ccccc4)cn3c2)CCC1 [Compound 82] | > 50 µM | > 50 µM |  |  | > 50 µM | > 50 µM
O=C(NC1CCCC(O)C1)c1ccc2nc(-c3ccccc3)cn2c1 (stereo not shown) [Compound 16] | 20 µM | 20 µM | > 50 µM | > 50 µM | 80 µM | 
CC(C)C1CC(NC(=O)c2ccc3nc(-c4ccccc4)cn3c2)C1 (stereo not shown) [Compound 119] | > 50 µM | > 50 µM |  |  | > 50 µM | > 50 µM
Cc1ccc(C2CCC2NC(=O)c2ccc3nc(-c4ccccc4)cn3c2)c(C)c1 (stereo not shown) [Compound 123] | > 50 µM | > 50 µM |  |  | > 50 µM | > 50 µM
COc1cccc(-c2cn3cc(C(=O)NC(C)C)ccc3n2)c1 [Compound 20] | 24 µM | 24 µM | > 50 µM | > 50 µM | 80 µM | 

Stronger by IC50 ([1]; Table 1), values ahead:

IC50 ([1]; Table 1) | IC50 ([1]; Table 2) | IC50 (BRD4 bromodomain 1 (BD1); Table 1) | IC50 (BRD4 bromodomain 1 (BD1); Table 2) | IC50 (ENL(YEATS)-HiBiT [2]) | IC50 (ENL(YEATS)-HiBiT [3]) | SMILES
1.8 µM | 1.8 µM | > 50 µM | > 50 µM | 41 µM |  | O=C(NC1CCCC1)c1ccc2nc(-c3ccccc3)cn2c1 [Compound 23]
4.8 µM | 4.8 µM | > 50 µM | > 50 µM | 80 µM |  | Cc1cccc(-c2cn3cc(C(=O)NC(C)C)ccc3n2)c1 [Compound 17]
2.6 µM | 2.6 µM | > 50 µM | > 50 µM | 80 µM |  | Cc1ccc(-c2cn3cc(C(=O)NC(C)C)ccc3n2)cc1 [Compound 14]
0.12 µM | 0.12 µM | > 50 µM | > 50 µM | 8.5 µM |  | CC(C)NC(=O)c1ccc2nc(-c3cccc(NS(=O)(=O)NCCc4c[nH]cn4)c3)cn2c1 [Compound 46]
3.03 µM | 3.03 µM |  |  | > 50 µM | > 50 µM | O=C(NC1Cc2ccccc21)c1ccc2nc(-c3ccccc3)cn2c1 (stereo not shown) [Compound 80]
0.506 µM | 0.506 µM | > 50 µM | > 50 µM | 4.04 µM |  | O=C(NC1CCC1)c1ccc2nc(-c3ccccc3)cn2c1 [Compound 15]
1.3 µM | 1.3 µM | > 50 µM | > 50 µM | 80 µM |  | COc1ccc(-c2cn3cc(C(=O)NC(C)C)ccc3n2)cc1 [Compound 22]
4.6 µM | 4.6 µM |  |  | > 50 µM | > 50 µM | CC1CC(NC(=O)c2ccc3nc(-c4ccccc4)cn3c2)C1 (stereo not shown) [Compound 87]
